The source of these data is patent US20210283083A1, “USE OF TYROSINE HYDROXYLASE INHIBITORS FOR THE TREATMENT OF AORTIC ANEURYSM” (CONSEJO SUPERIOR DE INVESTIGACIONES CIENTÍFICAS (CSIC), priority 2018, published 2021).

Type in all cases: in vivo
The test system of test [1] is ApoE^−/− mice infused with angiotensin II. In words: Ang II-induced aortic aneurysm in ApoE^−/− mice (ultrasonography, histology). The method, then:
FIG. 3. […] (A) Graph which represents the weekly evolution of the aortic diameter of ApoE^−/− mice infused with saline or angiotensin II (Ang II; 1000 ng/kg/min for 28 days) analysed by means of ultrasonography. Animals infused with Ang II were treated or not with AMPT (100 mg/kg via IP, administered twice a day from the day before implementing the Ang II pump). The values correspond to the mean±SEM (saline, n=9; Ang II, n=14; Ang II+AMPT, n=19). P<0.05: * vs. time 0 of the same experimental group; # vs. animals infused with saline at the same time; $ vs. animals infused with Ang II (not treated with AMPT) at the same time. (B) Representative images obtained by means of ultrasonography of the cross-sectional view of the aorta of each of the experimental groups indicated in (A) after 4 weeks of treatment. (C) Representative photographs of the aortas of the mice in the 3 study groups at the end of the study.
(§1) FIG. 4. […] ApoE^−/− mice were infused with saline or angiotensin II (Ang II; 1000 ng/kg/min for 28 days). Animals infused with Ang II were treated or not with AMPT (100 mg/kg, via IP, administered twice a day from the day before implementing the Ang II pump). (A and B) Representative images of the histological analysis using Masson's trichrome (A) and orcein (B) staining in sections of the abdominal aorta of the indicated study groups. Arrows indicate elastic fibre ruptures. (C) Representative staining for MAC3 (macrophage marker) in sections of the abdominal aorta of each one of the experimental groups. Arrows indicate positive regions for MAC3. Bar: 100 microns.
(§2) The studies were developed in male ApoE^−/− mice who were acclimatised to the facility for 1 week before the study. Animals were infused with Ang II (1000 ng/kg/min) by means of osmotic minipumps (model 1004, Alzet) implemented subcutaneously in the interscapular space of the mice after anesthesia with isoflurane. The procedure lasts approximately 15 minutes per animal. Immediately after surgery, antibiotics (penicillin, 22,000 u/Kg, i.m.) and analgesics (buprenorphine 0.05 mg/Kg, i.m.) were administered for preventing infections and limiting animal discomfort, which were kept on a heating pad until they woke up after the intervention and were carefully monitored during the post-surgery period. A group of the mice infused with Ang II received AMPT treatment (100 mg/kg, via i.p) administered twice daily from the day before implementing the Ang II pump and throughout the study (28 days). The control group consisted of ApoE^−/− mice infused with saline. Blood pressure was assessed weekly (at 0, 7, 14, 21 and 28 days) by means of the tail plethysmography method. The diameter of the aorta was also assessed weekly by means of abdominal ultrasound using ultrasound equipment (Vevo2100 Imaging systems, Visualsonics) with a 30 MHz transducer. To do this, the mice were anesthetised by means of 1.5% isofluorane inhalation and secured in a supine position on a heating platform. After shaving the precordial region, the transducer was applied to the abdominal wall to take measurements of the abdominal aorta. Those abdominal aortas with external diameters greater than or equal to 1.5 mm were considered aneurysmal. All measurements were carried out from the images captured by using the analysis software. After 4 weeks, the animals were euthanised by means of terminal intraperitoneal anesthesia with a mixture of medetomidine (1 mg/kg) and ketamine (75 mg/kg) in saline (final volume of 200 μl), aortas were immediately harvested, they were examined to determine the presence of aneurysms and were immediately frozen in nitrogen or fixed in paraformaldehyde for macroscopic characterisation or to be embedded in paraffin and processed for histochemical studies.

The nature of test [2]: Systolic blood pressure by tail plethysmography in ApoE^−/− mice infused with Ang II. The following applies: for systolic pressure: Ang II 1000 ng/kg/min + AMPT 100 mg/kg i.p. twice daily. The method, then: as §2
Test [3] has as its system TgNR4A3^CML mice infused with angiotensin II. In words: Ang II-induced aortic aneurysm in TgNR4A3^CML mice (ultrasonography, histology). As to the method:
(A) Diameter of the aorta of non-transgenic mice (controls; C57BL/6J; WT) and transgenic mice for human NR4A3 (TgNR4A3^CML) infused with saline or angiotensin II (Ang II; 1000 ng/kg/min for 28 days). A group of TgNR4A3^CML mice infused with Ang II was treated with AMPT (100 mg/kg, via IP, administered twice a day from the day before implementing the Ang II pump). The diameter of the aorta was determined by means of ultrasonography. Values are expressed as mean±SEM (at least n=7). P<0.05: * vs. time 0 of the same experimental group; # vs. the same animal infused with saline at the same time; $ vs. TgNR4A3CML infused with Ang II and treated with AMPT. (B) Representative images obtained by means of ultrasonography of the cross-sectional view of the aorta of each of the experimental groups indicated in (A) after 4 weeks of treatment. (C) Representative photographs of the aortas of the mice in the 5 groups at the end of the study.
as §1, with “6.” for “4.”, “Non-transgenic (controls; C57BL/6J; WT) and transgenic” for “ApoE^−/−”, “mice for human NR4A3 (TgNR4A3^CML)” for “mice”, “A group of transgenic animals” for “Animals”
as §2
The studies were developed in a similar way to that described in Example 3. […]

Test [4] is described as follows: Systolic blood pressure in TgNR4A3^CML mice infused with Ang II. The following applies: for systolic pressure: Ang II + AMPT. As to the method:
as §2
The studies were developed in a similar way to that described in Example 3. In this case, the effect of the infusion of Ang II on the diameter of the aorta in control animals (C57BL/6J; WT) and in transgenic mice for NR4A3 (TgNR4A3^CML) was analysed. The transgenic mice infused with Ang II were divided into two groups, one of which received AMPT treatment from the day before implementation of the Ang II pumps, as described in Example 3, while the second group only received the vehicle in which this drug was administered (saline). The control groups consisted of transgenic mice and non-transgenic controls infused with saline.

Where [5] appears, read: ApoE^−/− mice, Ang II, AMPT 100 mg/kg i.p. twice daily, 28 days.
Setting [6] is: TgNR4A3^CML mice, Ang II, AMPT treatment.

For `CC(N)(Cc1ccc(O)cc1)C(=O)O` (stereo not drawn) [AMPT, alpha-methyl-p-tyrosine], the “development of aortic aneurysm” value is “inhibits the development of aortic aneurysm” in test [1] (ApoE^−/− mice infused with Ang II 1000 ng/kg/min for 28 days, AMPT 100 mg/kg IP twice a day) and “inhibits the development of aortic aneurysm” in test [3] (TgNR4A3^CML mice infused with Ang II 1000 ng/kg/min for 28 days, AMPT 100 mg/kg IP twice a day). Besides, the “Ang II-induced increase in aortic diameter (ultrasonography)” value in test [1] (ApoE^−/− mice, AMPT 100 mg/kg i.p. twice daily, significant after 14 days, accentuated until 28 days) was “reduced the increase in aortic diameter to values similar to those of control animals”; in test [3] (TgNR4A3^CML mice, AMPT 100 mg/kg i.p. twice daily, after 21 and 28 days, values similar to WT mice infused with Ang II), “significantly prevented this effect”. Besides, the “structural alterations and inflammatory infiltrate in the aorta” value in test [1] (ApoE^−/− mice, Ang II 1000 ng/kg/min for 28 days, AMPT 100 mg/kg IP twice a day) is “limits structural alterations and inflammatory infiltrate”; in test [3] (TgNR4A3^CML mice, Ang II 1000 ng/kg/min for 28 days, AMPT 100 mg/kg IP twice a day), “limits structural alterations and inflammatory infiltrate”. For the same compound, in test [1] (setting [5]), the “disruption and rupture of elastic fibers (orcein staining)” value is “limited the disruption and rupture of elastic fibers”. Moreover, the “macrophage (MAC3-positive cells) infiltrate in the vascular wall” value in test [1] (setting [5]) is “prevented the significant macrophage (MAC3-positive cells) infiltrate”. Further, the “vascular remodelling / collagen deposition (Masson's trichrome)” value in test [1] (setting [5]) is given as “attenuated”. Also, the systolic pressure in test [2] (day 0, mean ± SEM) came out at 100.55 mm Hg; in test [2] (day 7, mean ± SEM), 133.99 mm Hg; in test [2] (day 14, mean ± SEM), 136.36 mm Hg; in test [2] (day 21, mean ± SEM), 143.34 mm Hg; in test [2] (day 28, mean ± SEM), 154.46 mm Hg; in test [4] (day 0, mean ± SEM), 100.19 mm Hg. Also, the systolic pressure in test [4] (day 7, mean ± SEM) worked out at 111.79 mm Hg; in test [4] (day 14, mean ± SEM) it was 129.03 mm Hg; in test [4] (day 21, mean ± SEM), 146.44 mm Hg; in test [4] (day 28, mean ± SEM) it was 158.59 mm Hg. Besides, the “effect of AMPT treatment on Ang II-increased blood pressure” value in test [2] (Ang II infusion, AMPT 100 mg/kg i.p. twice daily, 28 days) was “not significantly altered”; in test [4] (Ang II infusion, AMPT 100 mg/kg i.p. twice daily), “without significant differences”. Also, the “destructuring and rupture of the elastic laminae (orcein staining)” value in test [3] (setting [6]) was “limited the destructuring and rupture of the elastic laminae”. Moreover, in test [3] (setting [6]), the “vascular inflammatory infiltrate (MAC3 immunohistochemistry)” value is “reduced the important vascular inflammatory infiltrate”. The “vascular remodelling and collagen deposition (Masson's trichrome)” value in test [3] (setting [6]) was “attenuated the exacerbated vascular remodelling and collagen deposition”.
